From PubChem BioAssay AID1963828 (Molecular Pharmacology Branch, DTP, NCI, 2024)

System: 991263-137-R1-J2-PDC complex spheroid viability
Assay: Anticancer human tumor 991263-137-R1-J2-PDC patient-derived colon adenocarcinoma cell line growth inhibition [POLQ]
Details: for IC50: curve of first compound; for viability, T/C: stronger effect = lower value
How it was run: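 Complex spheroid viability model combining PDC tumour cells with endothelial (HUVEC) and MSC stromal cells. Novobiocin, ART-558 or RP6685 were tested singly and in combination with standard and investigational anticancer drugs. Each was titrated in half-log steps from near clinical Cmax, or from 10 microM where Cmax was unknown.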

[1] = second compound 0.0316 µM, first compound 0.0316 µM
[2] = second compound 0.0316 µM, first compound 0.1 µM
[3] = second compound 0.0316 µM, first compound 0.316 µM
[4] = second compound 0.0316 µM, first compound 1 µM
[5] = second compound 0.1 µM, first compound 0.0316 µM
[6] = second compound 0.1 µM, first compound 0.1 µM
[7] = second compound 0.1 µM, first compound 0.316 µM
[8] = second compound 0.1 µM, first compound 1 µM
[9] = second compound 0.316 µM, first compound 0.0316 µM
[10] = second compound 0.316 µM, first compound 0.1 µM
[11] = second compound 0.316 µM, first compound 0.316 µM
[12] = second compound 0.316 µM, first compound 1 µM
[13] = second compound 1 µM, first compound 0.0316 µM
[14] = second compound 1 µM, first compound 0.1 µM
[15] = second compound 1 µM, first compound 0.316 µM
[16] = second compound 1 µM, first compound 1 µM
[17] = second compound 3.16 µM, first compound 0.0316 µM
[18] = second compound 3.16 µM, first compound 0.1 µM
[19] = second compound 3.16 µM, first compound 0.316 µM
[20] = second compound 3.16 µM, first compound 1 µM
[21] = second compound 10 µM, first compound 0.0316 µM
[22] = second compound 10 µM, first compound 0.1 µM
[23] = second compound 10 µM, first compound 0.316 µM
[24] = second compound 10 µM, first compound 1 µM
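Also: spheroids exposed to compounds for 7 days before readout.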
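For viability, T/C in this document: 100% = DMSO vehicle control viability.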

Compound: CNCc1ccc(-c2[nH]c3cc(F)cc4c3c2CCNC4=O)cc1 + Cc1cccc(N(C)C(=O)C2C(O)CCN2c2nc(C)cc(C(F)(F)F)c2C#N)c1
- IC50 (second compound 0.0316 µM): > 10 µM
- IC50 (second compound 0.1 µM): > 10 µM
- IC50 (second compound 0.316 µM): > 10 µM
- IC50 (second compound 1 µM): > 10 µM
- IC50 (second compound 3.16 µM): > 10 µM
- IC50 (second compound 10 µM): > 10 µM
- viability, T/C [1]: 107%
- viability, T/C [2]: 103%
- viability, T/C [3]: 118%
- viability, T/C [4]: 93.4%
- viability, T/C (second compound 0.0316 µM, first compound 3.16 µM): 86.2%
- viability, T/C (second compound 0.0316 µM, first compound 10 µM): 106%
- viability, T/C [5]: 110%
- viability, T/C [6]: 107%
- viability, T/C [7]: 101%
- viability, T/C [8]: 107%
- viability, T/C (second compound 0.1 µM, first compound 3.16 µM): 105%
- viability, T/C (second compound 0.1 µM, first compound 10 µM): 99.4%
- viability, T/C [9]: 108%
- viability, T/C [10]: 120%
- viability, T/C [11]: 77.2%
- viability, T/C [12]: 112%
- viability, T/C (second compound 0.316 µM, first compound 3.16 µM): 110%
- viability, T/C (second compound 0.316 µM, first compound 10 µM): 126%
- viability, T/C [13]: 115%
- viability, T/C [14]: 102%
- viability, T/C [15]: 102%
- viability, T/C [16]: 113%
- viability, T/C (second compound 1 µM, first compound 3.16 µM): 127%
- viability, T/C (second compound 1 µM, first compound 10 µM): 94.3%
- viability, T/C [17]: 112%
- viability, T/C [18]: 101%
- viability, T/C [19]: 107%
- viability, T/C [20]: 108%
- viability, T/C (second compound 3.16 µM, first compound 3.16 µM): 110%
- viability, T/C (second compound 3.16 µM, first compound 10 µM): 119%
- viability, T/C [21]: 107%
- viability, T/C [22]: 114%
- viability, T/C [23]: 107%
- viability, T/C [24]: 114%
- viability, T/C (second compound 10 µM, first compound 3.16 µM): 123%
- viability, T/C (second compound 10 µM, first compound 10 µM): 94.2%

Compound: CCc1c2c(nc3ccc(O)cc13)-c1cc3c(c(=O)n1C2)COC(=O)[C@]3(O)CC + COC1C(OC(N)=O)C(O)C(Oc2ccc3c(O)c(NC(=O)c4ccc(O)c(CC=C(C)C)c4)c(=O)oc3c2C)OC1(C)C
- IC50 (second compound 0.0316 µM): 0.0691 µM
- IC50 (second compound 0.1 µM): 0.0551 µM
- IC50 (second compound 0.316 µM): 0.0592 µM
- IC50 (second compound 1 µM): 0.0675 µM
- IC50 (second compound 3.16 µM): 0.0999 µM
- IC50 (second compound 10 µM): 0.0592 µM
- viability, T/C (second compound 0.0316 µM, first compound 0.00316 µM): 102%
- viability, T/C (second compound 0.0316 µM, first compound 0.01 µM): 81%
- viability, T/C [1]: 54.5%
- viability, T/C [2]: 45.3%
- viability, T/C [3]: 41.4%
- viability, T/C [4]: 25.9%
- viability, T/C (second compound 0.1 µM, first compound 0.00316 µM): 106%
- viability, T/C (second compound 0.1 µM, first compound 0.01 µM): 88.4%
- viability, T/C [5]: 52.9%
- viability, T/C [6]: 44%
- viability, T/C [7]: 29.1%
- viability, T/C [8]: 20.2%
- viability, T/C (second compound 0.316 µM, first compound 0.00316 µM): 83.3%
- viability, T/C (second compound 0.316 µM, first compound 0.01 µM): 74.9%
- viability, T/C [9]: 47.8%
- viability, T/C [10]: 48.9%
- viability, T/C [11]: 34.9%
- viability, T/C [12]: 20.9%
- viability, T/C (second compound 1 µM, first compound 0.00316 µM): 92.2%
- viability, T/C (second compound 1 µM, first compound 0.01 µM): 81%
- viability, T/C [13]: 62.2%
- viability, T/C [14]: 41.9%
- viability, T/C [15]: 33.6%
- viability, T/C [16]: 22.6%
- viability, T/C (second compound 3.16 µM, first compound 0.00316 µM): 84.1%
- viability, T/C (second compound 3.16 µM, first compound 0.01 µM): 66.6%
- viability, T/C [17]: 61.1%
- viability, T/C [18]: 54.3%
- viability, T/C [19]: 37.1%
- viability, T/C [20]: 19.2%
- viability, T/C (second compound 10 µM, first compound 0.00316 µM): 104%
- viability, T/C (second compound 10 µM, first compound 0.01 µM): 82.3%
- viability, T/C [21]: 53.3%
- viability, T/C [22]: 46.1%
- viability, T/C [23]: 30.6%
- viability, T/C [24]: 19.9%
